SMILES strings stand for the structures.

The target in assay [1] is T1, human phosphopantothenoylcysteine synthetase (hPPCS) (Homo sapiens, UniProt Q9HAB8). The assay is described as follows: X-ray crystal structure at […] Å. Type of assay: binding.
Assay [2] addresses T2, human pantothenate kinase hPANK1β (Homo sapiens, UniProt Q8TE04).
T2 sequence (Q8TE04 1-373 isoform Q8TE04-2): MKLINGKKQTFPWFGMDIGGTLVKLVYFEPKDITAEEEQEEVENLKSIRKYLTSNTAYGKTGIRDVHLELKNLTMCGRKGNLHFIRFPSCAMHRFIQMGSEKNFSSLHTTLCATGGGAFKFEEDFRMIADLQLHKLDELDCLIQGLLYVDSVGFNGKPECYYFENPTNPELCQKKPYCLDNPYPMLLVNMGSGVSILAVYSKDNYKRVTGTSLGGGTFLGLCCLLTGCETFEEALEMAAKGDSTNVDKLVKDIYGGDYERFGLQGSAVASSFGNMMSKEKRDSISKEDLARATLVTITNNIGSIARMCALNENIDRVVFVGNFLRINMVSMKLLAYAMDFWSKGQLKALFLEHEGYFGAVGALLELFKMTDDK
As to the kind of experiment: PK/LDH-coupled kinase assay, substrate turnover. The class given is biochemical. To be noted: read-out: KM or K0.5.

Assay [3] concerns the target T3, fruit fly phosphopantothenoylcysteine synthetase (dPPCS) (Drosophila melanogaster, UniProt Q7KN99).
T3 sequence (Q7KN99 1-313): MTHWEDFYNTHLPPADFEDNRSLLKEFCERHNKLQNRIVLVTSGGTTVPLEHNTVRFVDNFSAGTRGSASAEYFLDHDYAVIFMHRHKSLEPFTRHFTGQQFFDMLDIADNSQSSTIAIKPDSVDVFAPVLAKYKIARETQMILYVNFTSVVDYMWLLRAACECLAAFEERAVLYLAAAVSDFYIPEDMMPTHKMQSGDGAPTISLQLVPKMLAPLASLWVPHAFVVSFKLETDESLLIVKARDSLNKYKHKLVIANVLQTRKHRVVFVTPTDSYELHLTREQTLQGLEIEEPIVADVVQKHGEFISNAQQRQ
The assay is described as follows: pyrophosphate-coupled NADH oxidation enzyme assay. The class given is biochemical.

Assay [4] addresses T1, human phosphopantothenoylcysteine synthetase (hPPCS). The assay is described as follows: X-ray crystal structure at […] Å. The class given is biochemical.

T1 sequence (Q9HAB8 2-311): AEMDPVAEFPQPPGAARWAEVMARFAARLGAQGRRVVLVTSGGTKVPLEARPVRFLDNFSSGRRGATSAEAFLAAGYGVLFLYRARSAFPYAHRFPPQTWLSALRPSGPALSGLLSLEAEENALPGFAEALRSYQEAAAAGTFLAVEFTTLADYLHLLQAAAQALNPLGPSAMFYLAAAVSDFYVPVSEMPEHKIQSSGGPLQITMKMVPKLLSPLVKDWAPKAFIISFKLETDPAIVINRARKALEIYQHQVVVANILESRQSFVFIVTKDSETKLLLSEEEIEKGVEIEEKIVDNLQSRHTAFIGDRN

As for `Nc1ncnc2c1ncn2[C@@H]1O[C@H](CO[P@](=O)(O)O[P@](=O)(O)NP(=O)(O)O)[C@@H](O)[C@H]1O` [AMPPNP], the “X-ray crystal structure at 1.9 Å (ternary complex with P-HoPan)” value in assay [1] was “electron densities for the co-factor AMPPNP and the ligand P-HoPan observed in both monomers”. As to `CC(C)(CO)[C@@H](O)C(=O)NCCC(=O)O` [compound 3, Pan], in assay [2], the Km turned out to be 6.2 ± 0.88 µM. For `CC(C)(CO)[C@@H](O)C(=O)NCCCC(=O)O` [compound 1, HoPan], in assay [2], the Km came out at 12.1 ± 1.9 µM. Consider `CC(C)(COP(=O)(O)O)[C@@H](O)C(=O)NCCCC(=O)O` [compound 2, P-HoPan], for which the results for the Ki in assay [3] and in assay [4] were 20.9 ± 1.1 µM and 13.4 ± 3.6 µM, respectively.

`CC(C)(CO)[C@@H](O)C(=O)NCCC(=O)NCCS` [compound 6, PantSH]: the Km in assay [2] was determined as 9.85 ± 1.17 µM.
